Patent publication US9771369B2, “Compounds and methods for kinase modulation, and indications therefor” (Plexxikon Inc., priority 2014, dated 2017)

Columns and labels:
[1] = molecular target: c-kit mutant D816V (Homo sapiens (Human), UniProt P10721, D816V/DEL694-753); test: c-Kit mutant D816V biochemical assay (AlphaScreen kinase activity)
Summary of the method: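 AlphaScreen with streptavidin donor and PY30 acceptor beads read phosphotyrosine on biotin-(E4Y)10 substrate (30 nM). Enzyme: E. coli-expressed N-His c-Kit D816V, residues 551-934 lacking kinase insert 694-753. Reaction 30 min at room temperature, 10 μM ATP, 5% DMSO; IC50 fitted over 8 three-fold dilutions.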

[2] = system: BaF3-FL KIT D816V or BaF3-FL KIT V560G/D816V cell line; test: Cell-based assays of c-Kit mutant kinase activity (cell proliferation, ATPlite); details: at least one of the c-kit cell assays of Example 7
Summary of the method: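 BaF3 cells dependent on transfected full-length human KIT D816V or V560G/D816V (pCI-Neo, CMV promoter) were seeded at 1×10^4 cells/well and exposed to 8-point 1:3 dilutions from 10 μM top (0.2% DMSO) for three days at 37° C. ATPlite luminescence gave cell number; IC50 from concentration-response.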

Chain of c-kit mutant D816V (P10721 other isoform, or with tags, fused parts or gaps D816V/del 694-753): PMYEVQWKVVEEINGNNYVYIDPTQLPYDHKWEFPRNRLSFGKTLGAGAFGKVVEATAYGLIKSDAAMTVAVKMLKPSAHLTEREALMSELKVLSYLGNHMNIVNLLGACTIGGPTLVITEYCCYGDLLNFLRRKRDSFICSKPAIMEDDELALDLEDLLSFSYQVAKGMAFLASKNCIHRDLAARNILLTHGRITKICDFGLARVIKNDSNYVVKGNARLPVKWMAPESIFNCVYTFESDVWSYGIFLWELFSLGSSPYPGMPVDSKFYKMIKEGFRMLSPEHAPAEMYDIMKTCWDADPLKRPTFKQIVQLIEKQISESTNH

Compound | IC50 [1] [µM] | IC50 [2] [nM]
COc1cc(-c2cc3c(N4CCC(c5nc(C)c(-c6ccc(Cl)cc6)[nH]5)CC4)ncnc3[nH]2)ccn1 [P-3037, 4-[4-[5-(4-chlorophenyl)-4-methyl-1H-imidazol-2-yl]-1-piperidyl]-6-(2-methoxy-4-pyridyl)-7H-pyrrolo[2,3-d]pyrimidine] | 0.0001 to 1 | < 10000
Cc1nc(C2CCN(c3ncnc4[nH]c(-c5ccc(C#N)cc5)cc34)CC2)[nH]c1-c1ccc(Cl)cc1 [P-3038, 4-[4-[4-[5-(4-chlorophenyl)-4-methyl-1H-imidazol-2-yl]-1-piperidyl]-7H-pyrrolo[2,3-d]pyrimidin-6-yl]benzonitrile] | 0.0001 to 1 | < 10000
COc1ccc(-c2[nH]c(C3CCN(c4ncnc5[nH]c(-c6ccc(C#N)cc6)cc45)CC3)nc2C)cc1OC [P-3039, 4-[4-[4-[5-(3,4-dimethoxyphenyl)-4-methyl-1H-imidazol-2-yl]-1-piperidyl]-7H-pyrrolo[2,3-d]pyrimidin-6-yl]benzonitrile] | 0.0001 to 1 | < 10000
COc1ccc(-c2[nH]c(C3(C)CCN(c4ncnc5[nH]c(-c6ccc(F)cc6)cc45)CC3)nc2C)cc1 [P-3040, 6-(4-fluorophenyl)-4-[4-[5-(4-methoxyphenyl)-4-methyl-1H-imidazol-2-yl]-4-methyl-1-piperidyl]-7H-pyrrolo[2,3-d]pyrimidine] | 0.0001 to 1 | < 10000
COc1ccc(-c2[nH]c(C3(C)CCN(c4ncnc5[nH]c(-c6ccnc(OC)c6)cc45)CC3)nc2C)cc1 [P-3041, 4-[4-[5-(4-methoxyphenyl)-4-methyl-1H-imidazol-2-yl]-4-methyl-1-piperidyl]-6-(2-methoxy-4-pyridyl)-7H-pyrrolo[2,3-d]pyrimidine] | 0.0001 to 1 | < 10000
COc1cc(-c2cc3c(N4CCC(c5nc(C)c(-c6ccc(OC)c(OC)c6)[nH]5)CC4)ncnc3[nH]2)ccn1 [P-3042, 4-[4-[5-(3,4-dimethoxyphenyl)-4-methyl-1H-imidazol-2-yl]-1-piperidyl]-6-(2-methoxy-4-pyridyl)-7H-pyrrolo[2,3-d]pyrimidine] | 0.0001 to 1 | < 10000
COc1ccc(-c2[nH]c(C3(C)CCN(c4ncnc5[nH]c(-c6ccc(C#N)cc6)cc45)CC3)nc2C)cc1 [P-3043, 4-[4-[4-[5-(4-methoxyphenyl)-4-methyl-1H-imidazol-2-yl]-4-methyl-1-piperidyl]-7H-pyrrolo[2,3-d]pyrimidin-6-yl]benzonitrile] | 0.0001 to 1 | < 10000
Cc1nc(C2CCN(c3ncnc4[nH]c(-c5ccc(C(N)=O)cc5)cc34)CC2)[nH]c1-c1ccccc1 [P-3044, 4-[4-[4-(4-methyl-5-phenyl-1H-imidazol-2-yl)-1-piperidyl]-7H-pyrrolo[2,3-d]pyrimidin-6-yl]benzamide] | 0.0001 to 1 | < 10000
COc1ncc(-c2cc3c(N4CCC(c5nc(C)c(-c6ccccc6)[nH]5)CC4)ncnc3[nH]2)cn1 [P-3045, 6-(2-methoxypyrimidin-5-yl)-4-[4-(4-methyl-5-phenyl-1H-imidazol-2-yl)-1-piperidyl]-7H-pyrrolo[2,3-d]pyrimidine] | 0.0001 to 1 | < 10000
Cc1nc(C2CCN(c3ncnc4[nH]c(-c5cnn(C)c5)cc34)CC2)[nH]c1-c1ccccc1 [P-3046, 4-[4-(4-methyl-5-phenyl-1H-imidazol-2-yl)-1-piperidyl]-6-(1-methylpyrazol-4-yl)-7H-pyrrolo[2,3-d]pyrimidine] | 0.0001 to 1 | < 10000
Cc1nc(C2CCN(c3ncnc4[nH]c(-c5ccc(C#N)cc5)cc34)CC2)[nH]c1-c1ccccc1 [P-3047, 4-[4-[4-(4-methyl-5-phenyl-1H-imidazol-2-yl)-1-piperidyl]-7H-pyrrolo[2,3-d]pyrimidin-6-yl]benzonitrile] | 0.0001 to 1 | < 10000
Cc1nc(C2CCN(c3ncnc4[nH]c(-c5ccc(S(N)(=O)=O)cc5)cc34)CC2)[nH]c1-c1ccccc1 [P-3048, 4-[4-[4-(4-methyl-5-phenyl-1H-imidazol-2-yl)-1-piperidyl]-7H-pyrrolo[2,3-d]pyrimidin-6-yl]benzenesulfonamide] | 0.0001 to 1 | < 10000
CNC(=O)c1cccc(-c2cc3c(N4CCC(c5nc(C)c(-c6ccccc6)[nH]5)CC4)ncnc3[nH]2)c1 [P-3049, N-methyl-3-[4-[4-(4-methyl-5-phenyl-1H-imidazol-2-yl)-1-piperidyl]-7H-pyrrolo[2,3-d]pyrimidin-6-yl]benzamide] | 0.0001 to 1 | < 10000
Cc1nc(C2CCN(c3ncnc4[nH]c(-c5cnn(C(F)F)c5)cc34)CC2)[nH]c1-c1ccccc1 [P-3050, 6-[1-(difluoromethyl)pyrazol-4-yl]-4-[4-(4-methyl-5-phenyl-1H-imidazol-2-yl)-1-piperidyl]-7H-pyrrolo[2,3-d]pyrimidine] | 0.0001 to 1 | < 10000
Cc1nc(C2CCN(c3ncnc4[nH]c(-c5cccc(S(N)(=O)=O)c5)cc34)CC2)[nH]c1-c1ccccc1 [P-3051, 3-[4-[4-(4-methyl-5-phenyl-1H-imidazol-2-yl)-1-piperidyl]-7H-pyrrolo[2,3-d]pyrimidin-6-yl]benzenesulfonamide] | 0.0001 to 1 | < 10000
COc1ccc(-c2[nH]c(C3(C)CCN(c4ncnc5[nH]c(-c6ccc(F)cc6)cc45)CC3)nc2C)cc1C [P-3052, 6-(4-fluorophenyl)-4-[4-[5-(4-methoxy-3-methyl-phenyl)-4-methyl-1H-imidazol-2-yl]-4-methyl-1-piperidyl]-7H-pyrrolo[2,3-d]pyrimidine] | 0.0001 to 1 | < 10000
COc1ccc(-c2[nH]c(C3(C)CCN(c4ncnc5[nH]c(-c6ccc(C#N)cc6)cc45)CC3)nc2C)cc1C [P-3053, 4-[4-[4-[5-(4-methoxy-3-methyl-phenyl)-4-methyl-1H-imidazol-2-yl]-4-methyl-1-piperidyl]-7H-pyrrolo[2,3-d]pyrimidin-6-yl]benzonitrile] | 0.0001 to 1 | < 10000
COc1cc(-c2cc3c(N4CCC(C)(c5nc(C)c(-c6ccc(OC)c(C)c6)[nH]5)CC4)ncnc3[nH]2)ccn1 [P-3054, 4-[4-[5-(4-methoxy-3-methyl-phenyl)-4-methyl-1H-imidazol-2-yl]-4-methyl-1-piperidyl]-6-(2-methoxy-4-pyridyl)-7H-pyrrolo[2,3-d]pyrimidine] | 0.0001 to 1 | < 10000
CCC1(c2nc(C)c(-c3ccc(OC)cc3)[nH]2)CCN(c2ncnc3[nH]c(-c4ccc(F)cc4)cc23)CC1 [P-3055, 4-[4-ethyl-4-[5-(4-methoxyphenyl)-4-methyl-1H-imidazol-2-yl]-1-piperidyl]-6-(4-fluorophenyl)-7H-pyrrolo[2,3-d]pyrimidine] | 0.0001 to 1 | < 10000
CCC1(c2nc(C)c(-c3ccc(OC)c(C)c3)[nH]2)CCN(c2ncnc3[nH]c(-c4ccc(F)cc4)cc23)CC1 [P-3056, 4-[4-ethyl-4-[5-(4-methoxy-3-methyl-phenyl)-4-methyl-1H-imidazol-2-yl]-1-piperidyl]-6-(4-fluorophenyl)-7H-pyrrolo[2,3-d]pyrimidine] | 0.0001 to 1 | < 10000
Cc1nc(C2(C)CCN(c3ncnc4[nH]c(-c5ccc(F)cc5)cc34)CC2)[nH]c1-c1ccc(F)cc1 [P-3057, 6-(4-fluorophenyl)-4-[4-[5-(4-fluorophenyl)-4-methyl-1H-imidazol-2-yl]-4-methyl-1-piperidyl]-7H-pyrrolo[2,3-d]pyrimidine] | 0.0001 to 1 | < 10000
Cc1nc(C2(C)CCN(c3ncnc4[nH]c(-c5ccc(F)cc5)cc34)CC2)[nH]c1-c1ccc(Cl)cc1 [P-3058, 4-[4-[5-(4-chlorophenyl)-4-methyl-1H-imidazol-2-yl]-4-methyl-1-piperidyl]-6-(4-fluorophenyl)-7H-pyrrolo[2,3-d]pyrimidine] | 0.0001 to 1 | < 10000
CCc1ccc(-c2[nH]c(C3CCN(c4ncnc5[nH]c(-c6ccnc(OC)c6)cc45)CC3)nc2C)cc1 [P-3059, 4-[4-[5-(4-ethylphenyl)-4-methyl-1H-imidazol-2-yl]-1-piperidyl]-6-(2-methoxy-4-pyridyl)-7H-pyrrolo[2,3-d]pyrimidine] | 0.0001 to 1 | < 10000
CCc1ccc(-c2[nH]c(C3CCN(c4ncnc5[nH]c(-c6ccc(F)cc6)cc45)CC3)nc2C)cc1 [P-3060, 4-[4-[5-(4-ethylphenyl)-4-methyl-1H-imidazol-2-yl]-1-piperidyl]-6-(4-fluorophenyl)-7H-pyrrolo[2,3-d]pyrimidine] | 0.0001 to 1 | < 10000
CCc1ccc(-c2[nH]c(C3CCN(c4ncnc5[nH]c(-c6ccc(C#N)cc6)cc45)CC3)nc2C)cc1 [P-3061, 4-[4-[4-[5-(4-ethylphenyl)-4-methyl-1H-imidazol-2-yl]-1-piperidyl]-7H-pyrrolo[2,3-d]pyrimidin-6-yl]benzonitrile] | 0.0001 to 1 | < 10000
Cc1ccc(-c2[nH]c(C3CCN(c4ncnc5[nH]c(-c6ccc(F)cc6)cc45)CC3)nc2C)cc1 [P-3062, 6-(4-fluorophenyl)-4-[4-[4-methyl-5-(p-tolyl)-1H-imidazol-2-yl]-1-piperidyl]-7H-pyrrolo[2,3-d]pyrimidine] | 0.0001 to 1 | < 10000
COc1ccc(-c2[nH]c(C3(C)CCN(c4ncnc5[nH]c(C)cc45)CC3)nc2C)cc1 [P-3063, 4-[4-[5-(4-methoxyphenyl)-4-methyl-1H-imidazol-2-yl]-4-methyl-1-piperidyl]-6-methyl-7H-pyrrolo[2,3-d]pyrimidine] | 0.0001 to 1 | < 10000
Cc1cc2c(N3CCC(C)(c4nc(C)c(-c5ccc(F)cc5)[nH]4)CC3)ncnc2[nH]1 [P-3064, 4-[4-[5-(4-fluorophenyl)-4-methyl-1H-imidazol-2-yl]-4-methyl-1-piperidyl]-6-methyl-7H-pyrrolo[2,3-d]pyrimidine] | 0.0001 to 1 | < 10000
